US7910109B2, “MHC class II epitopes of 5T4 antigen” (Oxford Biomedica (UK) Ltd., priority 2002, dated 2011)

Experiments:
[1] = test system: PBMCs from breast cancer patient OBCR25; assay: proliferation assay (3H-thymidine) with h5T4 class II peptide pools and peptides; type: cell-based, human; conditions: PBMCs of breast cancer patient OBCR25, 6 days incubation, 3H-thymidine pulse overnight
Protocol: FIG. 1 is a schematic diagram illustrating the proliferation assay for measuring cellular responses
A h5T4 peptide library was produced consisting of 51 20 mer peptides overlapping by […]. Class II peptide pools containing 5 peptides per pool were incubated with PBMCs from breast cancer patients OBCR24 and OBCR25 and proliferation was measures using the assay illustrated in FIG. 1. After 6 days incubation, cells were pulsed overnight with ^3H-thymidine and incubated overnight at 37° C.

PBMCs from OBCR25 = assay: IFNγ ELISPOT assay after restimulation in vitro with h5T4 peptides; type: cell-based, human; conditions: PBMCs from OBCR25 restimulated in vitro with h5T4 peptides
Protocol: FIG. 2 is a schematic diagram illustrating the ELISPOT assay for measuring antigen-specific IFNγ production.
To measure antigen-specific IFNγ production, an ELISPOT assay was conducted following the general scheme illustrated in FIG. 2.

For “YRYEINADPRLTNLSSNSDV (listed as Homo sapiens) [peptide #51, extreme C-terminal 20 amino acids (401-420) of h5T4; 20 mer peptide of pool #10]”, the proliferative response [1] was “positive response” and the “IFNγ ELISPOT response” value (PBMCs from OBCR25) was “positive ELISPOT response”.
